For assay [1], the target named is Sodium channel protein type 5 subunit alpha (Homo sapiens, UniProt Q14524). The assay can be described thus: Inhibition of human NaV1.5 at -140 mV holding potential by whole-cell patch clamp assay.
Assay [2] deals with Sodium channel protein type 9 subunit alpha (Homo sapiens, UniProt Q15858). The assay can be described thus: Inhibition of human NaV1.7 at -140 mV holding potential by whole-cell patch clamp assay. (In general: The patch-clamp technique gives a direct electrical read-out from membranes.)

Structures are written as SMILES. Bridge positions count the residues as written; N and C are the ends. Peptide text beside a SMILES is read from it.

Usually IC50 stands for the point on the concentration scale where inhibition reaches its midpoint. Lower therefore signals greater potency in that assay.

Sequence of Sodium channel protein type 9 subunit alpha (Q15858 whole entry): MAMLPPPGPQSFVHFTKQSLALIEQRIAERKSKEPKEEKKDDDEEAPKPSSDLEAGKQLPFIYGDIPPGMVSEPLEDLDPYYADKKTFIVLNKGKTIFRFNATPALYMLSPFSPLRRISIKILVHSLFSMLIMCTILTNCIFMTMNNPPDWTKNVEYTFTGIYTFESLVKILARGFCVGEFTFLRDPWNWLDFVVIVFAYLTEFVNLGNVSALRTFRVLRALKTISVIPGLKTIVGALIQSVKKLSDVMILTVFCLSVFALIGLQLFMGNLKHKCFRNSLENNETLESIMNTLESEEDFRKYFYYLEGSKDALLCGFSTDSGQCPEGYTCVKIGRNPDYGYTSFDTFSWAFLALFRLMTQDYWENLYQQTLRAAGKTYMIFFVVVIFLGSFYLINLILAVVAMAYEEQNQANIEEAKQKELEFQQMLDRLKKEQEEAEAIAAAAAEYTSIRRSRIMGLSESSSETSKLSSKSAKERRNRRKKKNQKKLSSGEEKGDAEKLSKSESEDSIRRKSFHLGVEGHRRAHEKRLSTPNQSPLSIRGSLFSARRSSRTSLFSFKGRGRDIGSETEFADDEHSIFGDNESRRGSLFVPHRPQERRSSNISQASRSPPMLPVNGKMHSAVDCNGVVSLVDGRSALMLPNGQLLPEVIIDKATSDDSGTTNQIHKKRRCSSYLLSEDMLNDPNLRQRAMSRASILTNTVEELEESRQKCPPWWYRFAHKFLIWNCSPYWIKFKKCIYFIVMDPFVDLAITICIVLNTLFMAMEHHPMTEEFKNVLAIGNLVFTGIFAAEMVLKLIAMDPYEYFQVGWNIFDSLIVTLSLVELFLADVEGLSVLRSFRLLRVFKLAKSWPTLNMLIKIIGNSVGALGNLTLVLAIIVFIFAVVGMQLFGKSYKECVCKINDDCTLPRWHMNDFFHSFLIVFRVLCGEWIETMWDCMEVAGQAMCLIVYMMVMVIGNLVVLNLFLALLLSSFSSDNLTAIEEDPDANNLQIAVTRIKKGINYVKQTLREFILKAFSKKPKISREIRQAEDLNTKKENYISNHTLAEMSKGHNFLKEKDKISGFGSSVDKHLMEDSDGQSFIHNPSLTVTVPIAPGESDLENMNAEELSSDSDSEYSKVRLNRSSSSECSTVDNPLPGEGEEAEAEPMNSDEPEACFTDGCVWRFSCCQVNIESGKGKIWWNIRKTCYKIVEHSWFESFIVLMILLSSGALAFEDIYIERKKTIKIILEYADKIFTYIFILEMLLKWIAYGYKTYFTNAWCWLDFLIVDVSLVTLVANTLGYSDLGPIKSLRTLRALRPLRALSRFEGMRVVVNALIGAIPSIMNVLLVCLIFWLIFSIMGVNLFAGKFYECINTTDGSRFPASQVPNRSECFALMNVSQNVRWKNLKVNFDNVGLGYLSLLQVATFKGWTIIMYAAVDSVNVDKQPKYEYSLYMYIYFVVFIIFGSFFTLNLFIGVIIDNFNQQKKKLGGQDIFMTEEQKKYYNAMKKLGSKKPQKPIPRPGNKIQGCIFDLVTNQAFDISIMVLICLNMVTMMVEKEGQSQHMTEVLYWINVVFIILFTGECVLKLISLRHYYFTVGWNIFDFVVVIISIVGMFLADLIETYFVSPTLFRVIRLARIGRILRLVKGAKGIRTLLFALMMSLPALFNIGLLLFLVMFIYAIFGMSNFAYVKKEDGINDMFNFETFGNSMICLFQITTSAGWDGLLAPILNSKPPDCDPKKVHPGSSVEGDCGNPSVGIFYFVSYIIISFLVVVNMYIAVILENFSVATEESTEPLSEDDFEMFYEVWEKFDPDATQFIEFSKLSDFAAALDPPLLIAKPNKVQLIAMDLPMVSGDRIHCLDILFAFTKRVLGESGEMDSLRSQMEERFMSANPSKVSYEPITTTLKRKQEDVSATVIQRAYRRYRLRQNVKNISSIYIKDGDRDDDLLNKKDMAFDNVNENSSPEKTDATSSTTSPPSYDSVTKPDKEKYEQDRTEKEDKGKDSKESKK
Sequence of Sodium channel protein type 5 subunit alpha (Q14524 whole entry): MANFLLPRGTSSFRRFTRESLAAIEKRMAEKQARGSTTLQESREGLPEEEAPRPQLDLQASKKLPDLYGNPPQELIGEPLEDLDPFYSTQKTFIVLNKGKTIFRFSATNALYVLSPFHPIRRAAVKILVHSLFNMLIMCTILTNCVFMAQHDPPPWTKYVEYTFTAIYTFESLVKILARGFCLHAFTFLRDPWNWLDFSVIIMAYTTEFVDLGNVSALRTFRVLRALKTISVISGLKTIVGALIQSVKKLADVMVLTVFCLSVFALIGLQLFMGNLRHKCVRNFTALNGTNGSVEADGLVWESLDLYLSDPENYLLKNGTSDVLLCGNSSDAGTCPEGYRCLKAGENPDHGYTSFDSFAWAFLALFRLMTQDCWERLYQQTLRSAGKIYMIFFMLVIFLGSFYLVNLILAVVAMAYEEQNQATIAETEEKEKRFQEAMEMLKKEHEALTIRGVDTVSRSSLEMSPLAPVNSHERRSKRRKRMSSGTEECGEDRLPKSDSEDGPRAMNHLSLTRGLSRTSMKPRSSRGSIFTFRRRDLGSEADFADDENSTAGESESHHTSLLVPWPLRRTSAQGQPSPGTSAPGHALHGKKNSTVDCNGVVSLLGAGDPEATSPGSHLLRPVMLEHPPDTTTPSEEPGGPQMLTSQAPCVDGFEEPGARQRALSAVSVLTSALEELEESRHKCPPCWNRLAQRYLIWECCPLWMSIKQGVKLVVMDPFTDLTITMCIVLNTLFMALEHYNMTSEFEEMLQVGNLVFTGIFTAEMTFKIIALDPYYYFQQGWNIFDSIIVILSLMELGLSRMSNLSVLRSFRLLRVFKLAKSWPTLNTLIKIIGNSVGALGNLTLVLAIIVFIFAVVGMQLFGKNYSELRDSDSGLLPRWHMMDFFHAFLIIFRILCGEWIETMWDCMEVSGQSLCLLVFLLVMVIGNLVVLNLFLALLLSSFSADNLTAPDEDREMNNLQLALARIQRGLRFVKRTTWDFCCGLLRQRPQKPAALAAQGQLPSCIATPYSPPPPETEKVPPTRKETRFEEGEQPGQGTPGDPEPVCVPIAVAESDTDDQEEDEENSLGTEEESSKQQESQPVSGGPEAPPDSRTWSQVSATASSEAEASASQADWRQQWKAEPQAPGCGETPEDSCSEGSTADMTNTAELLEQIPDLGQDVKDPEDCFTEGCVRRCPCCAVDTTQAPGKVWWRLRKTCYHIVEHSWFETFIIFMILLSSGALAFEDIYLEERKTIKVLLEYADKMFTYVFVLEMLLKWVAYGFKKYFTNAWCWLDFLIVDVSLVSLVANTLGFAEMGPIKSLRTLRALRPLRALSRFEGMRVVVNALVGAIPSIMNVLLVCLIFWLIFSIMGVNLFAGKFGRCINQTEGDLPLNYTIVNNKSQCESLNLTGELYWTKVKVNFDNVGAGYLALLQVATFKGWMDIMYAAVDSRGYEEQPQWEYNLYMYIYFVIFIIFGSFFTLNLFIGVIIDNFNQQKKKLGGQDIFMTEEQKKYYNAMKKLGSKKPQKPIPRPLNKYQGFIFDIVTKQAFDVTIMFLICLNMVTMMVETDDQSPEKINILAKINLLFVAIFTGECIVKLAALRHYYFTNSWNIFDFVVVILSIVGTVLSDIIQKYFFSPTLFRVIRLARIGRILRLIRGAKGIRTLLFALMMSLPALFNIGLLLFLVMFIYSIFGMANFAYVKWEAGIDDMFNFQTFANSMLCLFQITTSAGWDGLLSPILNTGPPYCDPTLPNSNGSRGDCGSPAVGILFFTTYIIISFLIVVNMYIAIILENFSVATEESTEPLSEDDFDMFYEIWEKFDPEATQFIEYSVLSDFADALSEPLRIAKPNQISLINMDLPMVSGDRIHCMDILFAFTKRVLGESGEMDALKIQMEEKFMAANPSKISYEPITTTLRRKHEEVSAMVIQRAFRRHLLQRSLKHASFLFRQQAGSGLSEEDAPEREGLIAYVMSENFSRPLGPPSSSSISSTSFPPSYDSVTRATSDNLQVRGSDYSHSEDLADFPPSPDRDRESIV

For the molecule `CC[C@H](C)[C@@H]1NC(=O)[C@@H]2CSSC[C@@H]3NC(=O)[C@H](C(C)C)NC(=O)[C@H](CC(C)C)NC(=O)[C@H](CC(N)=O)NC(=O)[C@@H]4CCCN4C(=O)[C@H](CCCNC(=N)N)NC(=O)[C@H](CSSC[C@H](NC(=O)[C@@H](N)CC(=O)O)C(=O)N[C@@H](CC(C)C)C(=O)NCC(=O)N[C@@H](Cc4ccccc4)C(=O)N[C@@H](CC4CCCCC4)C(=O)N[C@@H](CCCNC(=N)N)C(=O)N[C@@H](CCCCN)C(=O)N2)NC(=O)[C@H](CSSC[C@@H](C(=O)N[C@@H](CCCCN)C(=O)N[C@@H](Cc2ccc(O)cc2)C(=O)N[C@H](C(=O)N[C@@H](Cc2ccccc2)C(N)=O)C(C)C)NC(=O)[C@H](Cc2c[nH]c4ccccc24)NC(=O)[C@H](CCCCN)NC(=O)[C@H](Cc2cnc[nH]2)NC(=O)[C@H]([C@@H](C)O)NC(=O)[C@H](CCCNC(=N)N)NC(=O)[C@H](CO)NC3=O)NC(=O)[C@H](CCCCN)NC(=O)[C@H](CC(=O)O)NC(=O)[C@H](CC(N)=O)NC(=O)[C@H](CC(=O)O)NC(=O)[C@@H]2CCCN2C1=O`, the IC50 in assay [1] is 2.8 µM; in assay [2], 4 nM.

For `CC[C@@H]1NC(=O)CNC(=O)[C@H](CC(C)C)NC(=O)[C@@H](NC(=O)[C@@H](N)CC(=O)O)CSSC[C@@H]2NC(=O)[C@@H]3CSSC[C@@H](C(=O)N[C@@H](CCCCN)C(=O)N[C@@H](Cc4ccc(O)cc4)C(=O)N[C@H](C(=O)N[C@@H](Cc4ccccc4)C(N)=O)C(C)C)NC(=O)[C@H](Cc4c[nH]c5ccccc45)NC(=O)[C@H](CCCCN)NC(=O)[C@H](Cc4cnc[nH]4)NC(=O)[C@H]([C@@H](C)O)NC(=O)[C@H](CCCNC(=N)N)NC(=O)[C@H](CO)NC(=O)[C@H](CSSC[C@H](NC(=O)[C@H](CCCCN)NC(=O)[C@H](CCCNC(=N)N)NC(=O)[C@H](CCSC)NC1=O)C(=O)N[C@@H]([C@@H](C)CC)C(=O)N1CCC[C@H]1C(=O)N[C@@H](CC(=O)O)C(=O)N[C@@H](CC(N)=O)C(=O)N[C@@H](CC(=O)O)C(=O)N[C@@H](CCCCN)C(=O)N3)NC(=O)[C@H](C(C)C)NC(=O)[C@H](CC(C)C)NC(=O)[C@H](CC(N)=O)NC(=O)[C@@H]1CCCN1C(=O)[C@H](CCCNC(=N)N)NC2=O`, the figures for the IC50 in assay [1] and in assay [2] were > 10 µM and 79 nM, respectively.

Regarding `CC[C@H](C)[C@@H]1NC(=O)[C@@H]2CSSC[C@@H]3NC(=O)[C@H](C(C)C)NC(=O)[C@H](CC(C)C)NC(=O)[C@H](CC(N)=O)NC(=O)[C@@H]4CCCN4C(=O)[C@H](CCCNC(=N)N)NC(=O)[C@H](CSSC[C@H](NC(=O)[C@@H](N)CC(=O)O)C(=O)N[C@@H](CC(C)C)C(=O)NCC(=O)N[C@@H](C)C(=O)N[C@@H](Cc4c[nH]c5ccccc45)C(=O)N[C@@H](CCCNC(=N)N)C(=O)N[C@@H](CCCCN)C(=O)N2)NC(=O)[C@H](CSSC[C@@H](C(=O)N[C@@H](CCCCN)C(=O)N[C@@H](Cc2ccc(O)cc2)C(=O)N[C@H](C(=O)N[C@@H](Cc2ccccc2)C(N)=O)C(C)C)NC(=O)[C@H](Cc2c[nH]c4ccccc24)NC(=O)[C@H](CCCCN)NC(=O)[C@H](Cc2cnc[nH]2)NC(=O)[C@H]([C@@H](C)O)NC(=O)[C@H](CCCNC(=N)N)NC(=O)[C@H](CO)NC3=O)NC(=O)[C@H](CCCCN)NC(=O)[C@H](CC(=O)O)NC(=O)[C@H](CC(N)=O)NC(=O)[C@H](CC(=O)O)NC(=O)[C@@H]2CCCN2C1=O` (H-DCLGAWRKCIPDNDKCCRPNLVCSRTHKWCKYVF-NH2; disulfide 2-17, 9-23, 16-30), the IC50 is > 10 µM in assay [1] and 59 nM in assay [2].

Turning to `CC[C@H](C)[C@@H]1NC(=O)[C@@H]2CSSC[C@@H]3NC(=O)[C@H](C(C)C)NC(=O)[C@H](CC(C)C)NC(=O)[C@H](CC(N)=O)NC(=O)[C@@H]4CCCN4C(=O)[C@H](CCCNC(=N)N)NC(=O)[C@H](CSSC[C@H](NC(=O)[C@@H](N)CC(=O)O)C(=O)N[C@@H](CC(C)C)C(=O)NCC(=O)N[C@@H](C)C(=O)N[C@@H](Cc4ccccc4)C(=O)N[C@@H](CCCNC(=N)N)C(=O)N[C@@H](CCCCN)C(=O)N2)NC(=O)[C@H](CSSC[C@@H](C(=O)N[C@@H](CCCCN)C(=O)N[C@@H](Cc2ccc(O)cc2)C(=O)N[C@H](C(=O)N[C@@H](Cc2ccccc2)C(N)=O)C(C)C)NC(=O)[C@H](Cc2c[nH]c4ccccc24)NC(=O)[C@H](CCCNC(=N)N)NC(=O)[C@H](Cc2cnc[nH]2)NC(=O)[C@H](CC(C)C)NC(=O)[C@H](CCCNC(=N)N)NC(=O)[C@H](CO)NC3=O)NC(=O)[C@H](CCCCN)NC(=O)[C@H](CC(=O)O)NC(=O)[C@H](CC(N)=O)NC(=O)[C@H](CC(=O)O)NC(=O)[C@@H]2CCCN2C1=O` (H-DCLGAFRKCIPDNDKCCRPNLVCSRLHRWCKYVF-NH2; disulfide 2-17, 9-23, 16-30), the IC50 is > 10 µM in assay [1] and 1.6 nM in assay [2].

Turning to `CC[C@H](C)[C@@H]1NC(=O)[C@@H]2CSSC[C@@H]3NC(=O)[C@H](C(C)C)NC(=O)[C@H](CC(C)C)NC(=O)[C@H](CC(N)=O)NC(=O)[C@@H]4CCCN4C(=O)[C@H](CCCNC(=N)N)NC(=O)[C@H](CSSC[C@H](NC(=O)[C@@H](N)CC(=O)O)C(=O)N[C@@H](CC(C)C)C(=O)NCC(=O)N[C@@H](Cc4ccccc4)C(=O)N[C@@H](CCSC)C(=O)N[C@@H](CCCNC(=N)N)C(=O)N[C@@H](CCCCN)C(=O)N2)NC(=O)[C@H](CSSC[C@@H](C(=O)N[C@@H](CCCCN)C(=O)N[C@@H](Cc2ccc(O)cc2)C(=O)N[C@H](C(=O)N[C@@H](Cc2ccccc2)C(N)=O)C(C)C)NC(=O)[C@H](Cc2c[nH]c4ccccc24)NC(=O)[C@H](CCCCN)NC(=O)[C@H](Cc2cnc[nH]2)NC(=O)[C@H]([C@@H](C)O)NC(=O)[C@H](CCCNC(=N)N)NC(=O)[C@H](CO)NC3=O)NC(=O)[C@H](CCCCN)NC(=O)[C@H](CC(=O)O)NC(=O)[C@H](CC(N)=O)NC(=O)[C@H](CC(=O)O)NC(=O)[C@H](C)NC1=O` (H-DCLGFMRKCIADNDKCCRPNLVCSRTHKWCKYVF-NH2; disulfide 2-17, 9-23, 16-30), the IC50 in assay [1] is > 5 µM; in assay [2], 170 nM.

As for `CC[C@H](C)[C@@H]1NC(=O)[C@@H]2CSSC[C@@H]3NC(=O)[C@H](C(C)C)NC(=O)[C@H](CC(C)C)NC(=O)[C@H](CC(N)=O)NC(=O)[C@H](C)NC(=O)[C@H](CCCNC(=N)N)NC(=O)[C@H](CSSC[C@H](NC(=O)[C@@H](N)CC(=O)O)C(=O)N[C@@H](CC(C)C)C(=O)NCC(=O)N[C@@H](Cc4ccccc4)C(=O)N[C@@H](CCSC)C(=O)N[C@@H](CCCNC(=N)N)C(=O)N[C@@H](CCCCN)C(=O)N2)NC(=O)[C@H](CSSC[C@@H](C(=O)N[C@@H](CCCCN)C(=O)N[C@@H](Cc2ccc(O)cc2)C(=O)N[C@H](C(=O)N[C@@H](Cc2ccccc2)C(N)=O)C(C)C)NC(=O)[C@H](Cc2c[nH]c4ccccc24)NC(=O)[C@H](CCCCN)NC(=O)[C@H](Cc2cnc[nH]2)NC(=O)[C@H]([C@@H](C)O)NC(=O)[C@H](CCCNC(=N)N)NC(=O)[C@H](CO)NC3=O)NC(=O)[C@H](CCCCN)NC(=O)[C@H](CC(=O)O)NC(=O)[C@H](CC(N)=O)NC(=O)[C@H](CC(=O)O)NC(=O)[C@@H]2CCCN2C1=O` (H-DCLGFMRKCIPDNDKCCRANLVCSRTHKWCKYVF-NH2; disulfide 2-17, 9-23, 16-30), the IC50 in assay [1] is > 20 µM; in assay [2] it was 90 nM.

As to `CC[C@H](C)[C@@H]1NC(=O)[C@@H]2CSSC[C@@H]3NC(=O)[C@H](C(C)C)NC(=O)[C@H](CC(C)C)NC(=O)[C@H](CC(N)=O)NC(=O)[C@@H]4CCCN4C(=O)[C@H](CCCNC(=N)N)NC(=O)[C@H](CSSC[C@H](NC(=O)[C@@H](N)CC(=O)O)C(=O)N[C@@H](CC(C)C)C(=O)NCC(=O)N[C@@H](Cc4ccccc4)C(=O)N[C@@H](CCSC)C(=O)N[C@@H](CCCNC(=N)N)C(=O)N[C@@H](CCCCN)C(=O)N2)NC(=O)[C@H](CSSC[C@@H](C(=O)N[C@@H](C)C(=O)N[C@@H](Cc2ccc(O)cc2)C(=O)N[C@H](C(=O)N[C@@H](Cc2ccccc2)C(N)=O)C(C)C)NC(=O)[C@H](Cc2c[nH]c4ccccc24)NC(=O)[C@H](CCCCN)NC(=O)[C@H](Cc2cnc[nH]2)NC(=O)[C@H]([C@@H](C)O)NC(=O)[C@H](CCCNC(=N)N)NC(=O)[C@H](CO)NC3=O)NC(=O)[C@H](CCCCN)NC(=O)[C@H](CC(=O)O)NC(=O)[C@H](CC(N)=O)NC(=O)[C@H](CC(=O)O)NC(=O)[C@@H]2CCCN2C1=O` (H-DCLGFMRKCIPDNDKCCRPNLVCSRTHKWCAYVF-NH2; disulfide 2-17, 9-23, 16-30), the IC50 was > 5 µM in assay [1] and > 5000 nM in assay [2].

As to `CC[C@H](C)[C@@H]1NC(=O)[C@@H]2CSSC[C@@H]3NC(=O)[C@H](C(C)C)NC(=O)[C@H](CC(C)C)NC(=O)[C@H](CC(N)=O)NC(=O)[C@@H]4CCCN4C(=O)[C@H](CCCNC(=N)N)NC(=O)[C@H](CSSC[C@H](NC(=O)[C@@H](N)CC(=O)O)C(=O)N[C@@H](CC(C)C)C(=O)NCC(=O)N[C@@H](C(C)(C)C)C(=O)N[C@@H](CCSC)C(=O)N[C@@H](CCCNC(=N)N)C(=O)N[C@@H](CCCCN)C(=O)N2)NC(=O)[C@H](CSSC[C@@H](C(=O)N[C@@H](CCCCN)C(=O)N[C@@H](Cc2ccc(O)cc2)C(=O)N[C@H](C(=O)N[C@@H](Cc2ccccc2)C(N)=O)C(C)C)NC(=O)[C@H](Cc2c[nH]c4ccccc24)NC(=O)[C@H](CCCCN)NC(=O)[C@H](Cc2cnc[nH]2)NC(=O)[C@H]([C@@H](C)O)NC(=O)[C@H](CCCNC(=N)N)NC(=O)[C@H](CO)NC3=O)NC(=O)[C@H](CCCCN)NC(=O)[C@H](CC(=O)O)NC(=O)[C@H](CC(N)=O)NC(=O)[C@H](CC(=O)O)NC(=O)[C@@H]2CCCN2C1=O`, the IC50 in assay [1] was > 10 µM; in assay [2], 24 nM.

The record behind these values is ChEMBL document CHEMBL3414527, “Engineering potent and selective analogues of GpTx-1, a tarantula venom peptide antagonist of the Na(V)1.7 sodium channel” (J Med Chem, 2015).
